Laboratory results taken from US20230263822A1, “MODULATION OF FACTOR 11 EXPRESSION” (Ionis Pharmaceuticals, Inc., priority 2008, published 2023).
Blank lines part the entries; values can stand above or below the molecule they belong to.

Tests used:
[1] = Tail bleeding assay, Apixaban in combination with PLAVIX (Example 28); format: in vivo, BALB/c mice
Experimental: Five groups of eight BALB/c mice were treated with 0 mg/kg, 6.25 mg/kg, 12.50 mg/kg, 25.00 mg/kg, or 50.00 mg/kg of PLAVIX. Mice were given two doses of PLAVIX on day one and one dose of PLAVIX on day two, two hours before bleeding. An additional five groups of eight BALB/c mice were treated with 0 mg/kg, 6.25 mg/kg, 12.50 mg/kg, 25.00 mg/kg, or 50.00 mg/kg of PLAVIX. Mice were given two doses of PLAVIX on day one and one dose of PLAVIX on day two, two hours before bleeding. […] Two hours after receiving their final treatment, mice were placed in a tail bleeding chamber.

[2] = apixaban added to aspirin and to aspirin plus clopidogrel, compared with aspirin alone and aspirin plus clopidogrel (Wong); cited from earlier work
Factor 11 mRNA = Factor 11 mRNA in liver, FeCl3 induced venous thrombosis model vs Apixaban (Example 14); format: in vivo, BALB/c mice; details: for % inhibition of Factor 11 mRNA in liver relative to PBS control: FeCl3 VT model
Experimental: (§1) ISIS 404071 and Apixaban were evaluated in the FeCl3 induced VT mouse model. […] Two days after receiving the last dose of ISIS 404071, mice were anesthetized with 150 mg/kg ketamine mixed with 10 mg/kg xylazine administered by intraperitoneal injection. […] Twenty minutes after receiving Apixaban, mice were anesthetized with 150 mg/kg ketamine mixed with 10 mg/kg xylazine administered by intraperitoneal injection. […] Two days after the last dose of PBS, mice in both groups were anesthetized with 150 mg/kg ketamine mixed with 10 mg/kg xylazine administered by intraperitoneal injection. Thrombus formation was induced with FeCl3 in all of the mice except the first control group.
(§2) In mice undergoing FeCl3 treatment, thrombus formation was induced by applying a piece of filter paper (2×4 mm) pre-saturated with 10% FeCl3 solution directly on the vena cava. After 3 minutes of exposure, the filter paper was removed. Thirty minutes after the filter paper application, a fixed length of the vein containing the thrombus was dissected out for platelet analysis. Liver was collected for RNA analysis.
RNA was extracted from liver tissue for real-time PCR analysis of Factor 11. Results are presented as percent inhibition of Factor 11, relative to PBS control.

[3] = set-up: species or system BALB/c mice; details: mouse, in vivo
Experimental: ISIS 404071 and Apixaban were evaluated in the tail bleeding model.
The saline filled tubes were weighed before and after bleeding.

platelet factor-4 (PF-4) [4] = assay: Thrombus formation by PF-4 real-time PCR, FeCl3 induced venous thrombosis model vs Apixaban (Example 14); format: in vivo, BALB/c mice; details: for PF-4 in vena cava, percentage as compared to PBS controls (thrombus formation): + FeCl3
Experimental: as §1, §2
Real-time PCR quantification of platelet factor-4 (PF-4) was used to quantify platelets in the vena cava as a measure of thrombus formation. […] Results are presented as a percentage of PF-4 in ISIS 404071 or Apixaban treated mice, as compared to the two PBS-treated control groups.

blood coagulation = assay: PT and aPTT, combination with Apixaban (Example 20); format: in vivo, BALB/c mice
Experimental: PT and aPTT were measured using PPP from mice treated with ISIS 404071 in combination with Apixaban. In the first cohort, ISIS 404071 was administered subcutaneously to BALB/c mice at a dosage of 25 mg/kg twice a week for 3 weeks. Plasma was collected from these mice 5 days after receiving the last dose of ISIS 404071. In the second cohort, Apixaban was administered subcutaneously to BALB/c mice at a dosage of 6 mg/kg twice daily for three days. Plasma was collected from these mice 20 minutes after receiving the last dose of Apixaban. In the third cohort, ISIS 404071 was administered subcutaneously to BALB/c mice at a dosage of 20 mg/kg twice a week for 3 weeks, and Apixaban was administered subcutaneously at a dosage of 6 mg/kg twice daily on the last three days of ISIS 404071 treatment. Plasma was collected from these mice 20 minutes after receiving the last dose of Apixaban. In a fourth cohort, PBS was administered subcutaneously twice a week for three weeks, as a control. Plasma was collected 5 days after the last dose of PBS.
PT and aPTT values provided in Table 32 are reported as International Normalized Ratio (INR) values. […] However, Apixaban and Apixaban combined with ISIS 404071 increased PT. Also shown in Table 32, Apixaban, ISIS 404071, and ISIS 404071 combined with Apixaban increase aPTT.

[5] = Tail bleeding assay, combination with PLAVIX (Example 27); format: in vivo, BALB/c mice; details: ISIS 404071 0
Experimental: ISIS 404071 was administered subcutaneously at a dosage of 20 mg/kg twice a week for 3 weeks to 5 groups of eight BALB/c mice. After the last dose of ISIS 404071, mice were treated with 0 mg/kg, 6.25 mg/kg, 12.50 mg/kg, 25.00 mg/kg, or 50.00 mg/kg of PLAVIX. Two doses of PLAVIX were administered to the mice on day one and one dose of PLAVIX was administered on day two, two hours before bleeding.
Two hours after receiving their final treatment, mice were placed in a tail bleeding chamber. […] The blood was collected for the course of 40 minutes.

platelet factor-4 (PF-4) [6] = assay: Thrombus formation by PF-4, FeCl3 induced VT model, combination with PLAVIX (Example 26); format: in vivo, BALB/c mice; details: for PF-4 mRNA, percent as compared to the PBS + FeCl3 control (thrombus formation): ISIS 404071 0 mg/kg
Experimental: The combination of ISIS 404071 and PLAVIX was evaluated in the FeCl3 induced VT mouse model. Four groups of eight BALB/c mice, weighing approximately 25 g each, were treated with 6.25 mg/kg, 12.50 mg/kg, 25.00 mg/kg, or 50.00 mg/kg of PLAVIX. Mice were given two doses of PLAVIX on day one and one dose of PLAVIX on day two, two hours before surgery.
After the last dose of ISIS 404071, mice were treated with 6.25 mg/kg, 12.50 mg/kg, 25.00 mg/kg, or 50.00 mg/kg of PLAVIX. Two doses of PLAVIX were administered to the mice on day one and one dose of PLAVIX was administered on day two, two hours before surgery.
Two control groups of eight BALB/c mice, weighing approximately 25 g each, were not treated with ISIS 404071 or PLAVIX. […] Thrombus formation was induced with FeCl3 in all of the mice except the first […] control groups. All mice were anesthetized with 150 mg/kg of ketamine mixed with 10 mg/kg of xylazine administered by intraperitoneal injection.
After 3 minutes of exposure, the filter paper was removed. Thirty minutes after the filter paper application, a fixed length of the vein containing the thrombus was dissected out for platelet analysis.
Real-time PCR quantification of PF-4 was used to quantify platelets in the vena cava as a measure of thrombus formation. […] Therefore, the combination of anti-platelet therapy with Factor 11 ASO increases antithrombotic activity. Data is presented as percent of PF-4 mRNA as compared to the PBS+ FeCl3 control.

[7] = Apixaban 0.5 mg/kg subcutaneously one time
[8] = Apixaban 2 mg/kg subcutaneously one time
[9] = Apixaban 5 mg/kg subcutaneously one time
[10] = Apixaban 10 mg/kg subcutaneously one time
[11] = Apixaban 20 mg/kg subcutaneously one time
[12] = BALB/c mice, ISIS 404071 25 or 20 mg/kg, Apixaban 6 mg/kg twice daily
[13] = ISIS 404071 alone 25 mg/kg s.c. twice a week for 3 weeks, Apixaban alone 6 mg/kg s.c. twice daily for three days, combination 20 mg/kg + 6 mg/kg

- bleeding risk in tail bleeding assay ([1]; Apixaban 0.5 mg/kg i.p. in combination with anti-platelet therapy (PLAVIX 0-50 mg/kg)): increases bleeding risk
- Blood (tail bleeding, collected for 40 minutes) ([1]; Apixaban 0.5 mg/kg intraperitoneally 20 minutes before bleeding, PLAVIX 0): 0.004 g
- bleeding in tail bleeding assay [3]: did increase bleeding
SMILES: COc1ccc(-n2nc(C(N)=O)c3c2C(=O)N(c2ccc(N4CCCCC4=O)cc2)CC3)cc1 [Apixaban, reference compound]
- bleeding time [2]: significant increase in bleeding time
- % inhibition of Factor 11 mRNA in liver relative to PBS control (Factor 11 mRNA; [7]): 5%
- % inhibition of Factor 11 mRNA in liver relative to PBS control (Factor 11 mRNA; [8]): 8%
- % inhibition of Factor 11 mRNA in liver relative to PBS control (Factor 11 mRNA; [9]): 12%
- % inhibition of Factor 11 mRNA in liver relative to PBS control (Factor 11 mRNA; [10]): 2%
- % inhibition of Factor 11 mRNA in liver relative to PBS control (Factor 11 mRNA; [11]): 0%
- Factor 11 mRNA in liver vs PBS control (Factor 11 mRNA; FeCl3 induced VT model, ISIS 404071 1.25-40 mg/kg, Apixaban 0.5-5 mg/kg s.c. once): did not result in significant reduction of Factor 11
- PF-4 in vena cava, percentage as compared to PBS controls (thrombus formation) (platelet factor-4 (PF-4) [4]; [7]): 67%
- PF-4 in vena cava, percentage as compared to PBS controls (thrombus formation) (platelet factor-4 (PF-4) [4]; [8]): 46%
- PF-4 in vena cava, percentage as compared to PBS controls (thrombus formation) (platelet factor-4 (PF-4) [4]; [9]): 15%
- PF-4 in vena cava, percentage as compared to PBS controls (thrombus formation) (platelet factor-4 (PF-4) [4]; [10]): 5%
- PF-4 in vena cava, percentage as compared to PBS controls (thrombus formation) (platelet factor-4 (PF-4) [4]; [11]): 26%
- PF-4 in vena cava as measure of thrombus formation (platelet factor-4 (PF-4) [4]; FeCl3 induced VT model, vs PBS control): also resulted in reduction of PF-4
- PT (blood coagulation; [12]): increased PT
- aPTT (blood coagulation; [12]): increase aPTT
- PT INR (blood coagulation; [13]): 3.25 INR
- aPTT INR (blood coagulation; [13]): 1.44 INR

- Blood (tail bleeding, collected for 40 minutes) ([5]; PLAVIX 6.25 mg/kg): 0.075 g
- Blood (tail bleeding, collected for 40 minutes) ([5]; PLAVIX 12.50 mg/kg): 0.205 g
- Blood (tail bleeding, collected for 40 minutes) ([5]; PLAVIX 50.00 mg/kg): 0.628 g
SMILES: COC(=O)[C@H](c1ccccc1Cl)N1CCc2sccc2C1 [PLAVIX, clopidogrel]
- PF-4 in vena cava as measure of thrombus formation (platelet factor-4 (PF-4) [6]; FeCl3 induced VT model, PLAVIX 6.25-50 mg/kg, ISIS 404071 20 mg/kg): resulted in a reduction of PF-4
- PF-4 mRNA, percent as compared to the PBS + FeCl3 control (thrombus formation) (platelet factor-4 (PF-4) [6]; PLAVIX 6.25 mg/kg): 59%
- PF-4 mRNA, percent as compared to the PBS + FeCl3 control (thrombus formation) (platelet factor-4 (PF-4) [6]; PLAVIX 12.50 mg/kg): 37%
- PF-4 mRNA, percent as compared to the PBS + FeCl3 control (thrombus formation) (platelet factor-4 (PF-4) [6]; PLAVIX 50.00 mg/kg): 30%
- PF-4 mRNA, percent as compared to the PBS + FeCl3 control (thrombus formation) (platelet factor-4 (PF-4) [6]; PLAVIX […]): 30%
